One test has as its target T1, μ-opioid receptor (Homo sapiens, UniProt P35372).
T1 construct: host or cells: HEK-293; b235 lists HEK-293, CHO or U-2 OS)
Description: μ-opioid receptor [35S]GTPγS functional assay. The test is classed as biochemical. The following applies: for Emax: maximal effect relative to the effect elicited by DAMGO, HEK-293 cells. The protocol: [^35S]GTPγS functional assays were conducted using freshly thawed μ-receptor membranes prepared in-house from a cell line expressing recombinant t opioid receptor in a HEK-293, CHO or U-2 OS cell background, or purchased from a commercial source (Perkin Elmer, Shelton, Conn.; or DiscovRx, Fremont, Calif.). Assay reactions were prepared by sequentially adding the following reagents to binding buffer (100 mM NaCl, 10 mM MgCl2, 20 mM HEPES, pH 7.4) on ice (final concentrations indicated): membrane protein (0.026 mg/mL), saponin ([…]), GDP ([…]) and [^35S]GTPγS (0.20 nM; Perkin Elmer, Shelton, Conn.). The prepared membrane solution (190 μl/well) was transferred to 96-shallow well polypropylene plates containing 10 al of 20× concentrated stock solutions of the agonist [D-Ala^2, N-methyl-Phe^4 Gly-ol^5]-enkephalin (DAMGO) prepared in dimethyl sulfoxide (DMSO). Plates were incubated for 30 min at about 25° C. with shaking. Reactions were terminated by rapid filtration onto 96-well Unifilter GF/B filter plates (Perkin Elmer, Shelton, Conn.) using a 96-well tissue harvester (Perkin Elmer, Shelton, Conn.) followed by three filtration washes with 200 μl of ice-cold wash buffer (10 mM NaH2PO4, 10 mM Na2HPO4, pH 7.4). Filter plates were subsequently dried at 50° C. for 2-3 hours. BetaScint scintillation cocktail (Perkin Elmer, Shelton, Conn.) was added (50 μl/well) and plates were counted using a Packard Top-Count for 1 min/well. Data were analyzed using the sigmoidal dose-response curve fitting functions in GraphPad PRISM v. 3.0, or an in-house function for non-linear, sigmoidal dose-response curve-fitting.
μGTP EC50 is the concentration of a compound providing 50% of the maximal response for the compound at a μ-opioid receptor.
μ GTP Emax (%) is the maximal effect elicited by a compound relative to the effect elicited by DAMGO, a standard agonist. Generally, the μ GTP Emax (%) value measures the efficacy of a compound to treat or prevent pain or other Conditions.
(§1) In TABLE 2, activity response of certain Compounds of the Invention to the μ- and κ-opioid receptors was determined as described above for functional assays using HEK-293 cells.

In test [1] the target is T2, κ-opioid receptor (Homo sapiens, UniProt P41145). Description: κ-opioid receptor [35S]GTPγS functional assay. To be noted: for Emax: maximal effect relative to the effect elicited by U69,593, HEK-293 cells. More on the design: expressed in transfected cells; host or cells: HEK-293 (in-house membranes). The test is classed as biochemical. The protocol:
Functional [^35S]GTPγS binding assays were conducted as follows. K opioid receptor membrane solution was prepared by sequentially adding final concentrations of 0.026 μg/μl κ membrane protein (in-house), 10 μg/mL saponin, 3 μM GDP and 0.20 nM [^35S]GTPγS to binding buffer (100 mM NaCl, 10 mM MgCl2, 20 mM HEPES, pH 7.4) on ice. The prepared membrane solution (190 μl/well) was transferred to 96-shallow well polypropylene plates containing 10 μl of 20× concentrated stock solutions of agonist prepared in DMSO. Plates were incubated for 30 min at a temperature of about 25° C. with shaking. Reactions were terminated by rapid filtration onto 96-well Unifilter GF/B filter plates (Perkin Elmer, Shelton, Conn.) using a 96-well tissue harvester (Packard) and followed by three filtration washes with 200 μl ice-cold binding buffer (10 mM NaH2PO4, 10 mM Na2HPO4, pH 7.4). Filter plates were subsequently dried at 50° C. for 2-3 hours. Fifty μl/well scintillation cocktail (Perkin Elmer, Shelton, Conn.) was added and plates were counted in a Packard Top-Count for 1 min/well.
κ GTP EC50 is the concentration of a compound providing 50% of the maximal response for the compound at a κ receptor.
κ GTP Emax (%) is the maximal effect elicited by a compound relative to the effect elicited by U69,593.
as §1

The target in test [2] is T2, κ-opioid receptor. Description: κ-opioid receptor radioligand dose displacement binding assay ([3H]-U69,593). Further details: expressed in transfected cells; host or cells: HEK-293 (in-house membrane prep). As to the method: Membranes from HEK-293 cells, CHO or U-2 OS cells expressing the recombinant human kappa opioid receptor (K) were prepared by lysing cells in ice cold hypotonic buffer (2.5 mM MgCl2, 50 mM HEPES, pH 7.4) (10 mL/10 cm dish) followed by homogenization with a tissue grinder/Teflon pestle. Membranes were collected by centrifugation at 30,000×g for 15 min at 4° C. and pellets were resuspended in hypotonic buffer to a final concentration of 1-3 mg/mL. Protein concentrations were determined using the BioRad protein assay reagent with bovine serum albumen as standard. Aliquots of κ receptor membranes were stored at −80° C.
Radioligand dose displacement assays used 0.4 nM [^3H]-U69,593 (GE Healthcare, Piscataway, N.J.; 40 Ci/mmole) with 15 μg membrane protein (recombinant K opioid receptor expressed in HEK 293 cells; in-house prep) in a final volume of 200 μl binding buffer (5% DMSO, 50 mM Trizma base, pH 7.4). Non-specific binding was determined in the presence of 10 μM unlabeled naloxone or U69,593. All reactions were performed in 96-well polypropylene plates for 1 hour at a temperature of about 25° C. Binding reactions were terminated by rapid filtration onto 96-well Unifilter GF/C filter plates (Perkin Elmer, Shelton, Conn.) presoaked in 0.5% polyethylenimine (Sigma). Harvesting was performed using a 96-well tissue harvester (Perkin Elmer, Shelton, Conn.) followed by five filtration washes with 200 μl ice-cold binding buffer. Filter plates were subsequently dried at 50° C. for 1-2 hours. Fifty μl/well scintillation cocktail (Perkin Elmer, Shelton, Conn.) was added and plates were counted in a Packard Top-Count for 1 min/well.
In TABLE 1, binding affinity of certain Compounds of the Invention to the κ-opioid receptors was determined as described above.

SMILES strings stand for the structures. A value given as a limit tells only on which side of the number the result lay.

T1 sequence (P35372 whole entry, species assumed): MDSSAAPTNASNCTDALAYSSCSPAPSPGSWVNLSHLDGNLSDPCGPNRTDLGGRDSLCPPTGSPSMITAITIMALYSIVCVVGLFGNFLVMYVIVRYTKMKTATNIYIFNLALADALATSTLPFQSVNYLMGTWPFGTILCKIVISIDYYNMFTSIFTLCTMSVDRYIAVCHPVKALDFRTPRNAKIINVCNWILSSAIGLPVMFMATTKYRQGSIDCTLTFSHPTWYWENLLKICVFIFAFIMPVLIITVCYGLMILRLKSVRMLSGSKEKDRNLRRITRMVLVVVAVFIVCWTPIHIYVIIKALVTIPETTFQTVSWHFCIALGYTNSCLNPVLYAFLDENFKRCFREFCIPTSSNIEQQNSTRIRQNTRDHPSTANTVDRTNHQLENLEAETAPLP
T2 sequence (P41145 whole entry): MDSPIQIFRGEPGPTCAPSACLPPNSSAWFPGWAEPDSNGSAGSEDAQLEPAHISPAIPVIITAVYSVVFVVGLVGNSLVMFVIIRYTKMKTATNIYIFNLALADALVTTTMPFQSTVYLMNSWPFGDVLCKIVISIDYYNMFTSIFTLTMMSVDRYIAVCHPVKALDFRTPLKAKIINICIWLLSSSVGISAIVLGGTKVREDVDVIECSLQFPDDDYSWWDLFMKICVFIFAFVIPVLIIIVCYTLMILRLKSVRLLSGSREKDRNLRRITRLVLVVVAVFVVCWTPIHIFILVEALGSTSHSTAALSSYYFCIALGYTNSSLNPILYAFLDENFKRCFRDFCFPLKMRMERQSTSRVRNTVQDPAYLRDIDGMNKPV

What is called EC50 is the concentration needed to bring the measured effect to its halfway point. A high value points to a less potent agent. The Emax is the maximal effect, on the per cent scale that the assay sets. A word on the Ki: it is a dissociation constant, usually derived from enzyme kinetics or from competition with a known ligand. In the case of `CN1CC[C@]23Cc4[nH]c(=O)c(C(=O)N5CCCC5)cc4C[C@H]2[C@H]1Cc1ccc(O)cc13` [Compound 12, (6R,6aR,12aS)-2-hydroxy-15-methyl-9-(pyrrolidine-1-carbonyl)-6,6a,7,12-tetrahydro-5H-6,12a-(epiminoethano)naphtho[2,1-g]quinolin-10(11H)-one], on μ-opioid receptor, the EC50 was 145 ± 27.9 nM and the Emax amounted to 35.3 ± 1.67%. At κ-opioid receptor [1], this molecule yielded a concentration for a half-maximal effect (EC50) of 24.2 ± 11.9 nM and a maximal effect (Emax) of 9.5 ± 0.5%. The molecule further returned an inhibitory constant (Ki) at κ-opioid receptor [2] of 14.4 ± 2.81 nM.

On μ-opioid receptor, `CN1CC[C@]23Cc4[nH]c(=O)c(C(=O)N5Cc6ccccc6C5)cc4C[C@H]2[C@H]1Cc1ccc(O)cc13` [Compound 16, (6R,6aR,12aS)-2-hydroxy-9-(isoindoline-2-carbonyl)-15-methyl-6,6a,7,12-tetrahydro-5H-6,12a-(epiminoethano)naphtho[2,1-g]quinolin-10(11H)-one] yielded an EC50 of 40.2 ± 11.5 nM and an Emax of 47 ± 2.65%. At κ-opioid receptor [1], this molecule showed an EC50 of over 20000 nM and an Emax of 0%. The molecule further displayed a Ki on κ-opioid receptor [2] of 1.41 ± 0.52 nM.

On μ-opioid receptor, `CN1CC[C@]23Cc4[nH]c(=O)c(C(=O)N5[C@@H]6CC[C@H]5C[C@@H](O)C6)cc4C[C@H]2[C@H]1Cc1ccc(O)cc13` [Compound 17, (6R,6aR,12aS)-2-hydroxy-9-((1R,3R,5S)-3-hydroxy-8-azabicyclo[3.2.1]octane-8-carbonyl)-15-methyl-6,6a,7,12-tetrahydro-5H-6,12a-(epiminoethano)naphtho[2,1-g]quinolin-10(11H)-one] yielded an EC50 of 240 ± 36.8 nM and a maximal response (Emax) of 27.5 ± 2.53%. On κ-opioid receptor [1], this molecule registered an EC50 of 152 ± 28.8 nM and an Emax of 9.74 ± 1.51%. The molecule further returned an inhibition constant (Ki) at κ-opioid receptor [2] of 17.7 ± 7.6 nM.

As to `CCn1c2c(cc(C(=O)N3Cc4ccccc4C3)c1=O)C[C@@]1(O)[C@H]3Cc4ccc(O)cc4[C@@]1(CCN3C)C2` [Compound 19, (6R,6aS,12aR)-11-ethyl-2,6a-dihydroxy-9-(isoindoline-2-carbonyl)-15-methyl-6,6a,7,12-tetrahydro-5H-6,12a-(epiminoethano)naphtho[2,1-g]quinolin-10(11H)-one], on μ-opioid receptor, it took 288 ± 49.6 nM to reach a half-maximal effect (EC50) and the maximal response (Emax) worked out at 30.8 ± 2.31%.

On μ-opioid receptor, `COc1ccc2c(c1)[C@]13CCN(C(=O)OC(C)(C)C)[C@H](C2)[C@]1(O)Cc1cc(C(=O)O)c(=O)[nH]c1C3` [Compound 20, (6R,6aS,12aR)-15-(tert-butoxycarbonyl)-6a-hydroxy-2-methoxy-10-oxo-6,6a,7,10,11,12-hexahydro-5H-6,12a-(epiminoethano)naphtho[2,1-g]quinoline-9-carboxylic acid] gave an EC50 of over 20000 nM and an Emax of 3%.

The values above are taken from patent publication US10131666B2, “Heterocyclic morphinan derivatives and use thereof” (Purdue Pharma L.P., priority 2014, dated 2018).
